According to patent US9234046B2, “Treatment of renal disease” (OPSONA Therapeutics Ltd, priority 2007, dated 2016):
Several values for one entry are separate records, joined by “and”; a condition that tells them apart may be missing. Identical values can stand only once.

Tests used:
C57BL/6 mice [1] = assay: Nephrotoxic serum + Pam3CysSK4 glomerular inflammation model, 24 hours: albuminuria and glomerular thrombosis; assay type: in vivo
Method: (§1) Methods for generating nephrotoxic antibody, blood counts, processing histology, assessment of histology are disclosed in Brown H J, Lock, H R, Sacks S H, Robson M G TLR2 stimulation of intrinsic kidney cells in the induction of immune mediated glomerulonephritis, J Immunol 2006, 177(3):1925-1931, the contents of which are incorporated herein by reference. These methods were followed in the performance of the present example.
Kidney samples were fixed for 4 hours in Bouin's solution, transferred into formalin, then processed and embedded in paraffin. Sections were cut at 0.5 μm thickness and stained with periodic acid-Schiff (PAS) reagent. All samples then were assessed blindly for glomerular thrombosis by identification of the amount of PAS-positive material. In total, 50 glomeruli were assessed for each mouse for signs of glomerular thrombosis, and a score was assigned to each as follows: Grade 0, no PAS-positive material; grade 1, […]; grade 2, 25 to 50%, grade 3, 50 to 75%, and grade 4, 75 to 100%. The average glomerular thrombosis score for each mouse then was calculated. Sections also were assessed blindly for glomerular crescents. A total of 50 glomeruli were assessed, and the number of crescents (two or more layers of cells in Bowman's space) was expressed as a percentage.
(§2) The glomerular histology was assessed at 2 hours and 24 hours following disease induction with NTS. Kidneys were fixed in Bouin's solution and stained with periodic acid-Schiff reagent. At 2 hours, the number of neutrophils (identified by their characteristic nuclear morphology) per 50 glomerular cross sections was counted. At 24 hours, the amount of glomerular thrombosis was assessed by identification of the amount of periodic acid-Schiff-positive material. In total, 50 glomeruli were assessed for each animal for signs of glomerular thrombosis, and a score was assigned as follows: grade 0, no periodic acid-Schiff-positive material; grade 1, <25%; grade 2, 25-50%; grade 3, 50-75%; grade 4, 75-100%. All sections scored for neutrophils and glomerular thrombosis were done so blindly.
Mice were housed in metabolic cages for 24 hours for urine collections. The urine albumin concentration was measured by radial immunodiffusion. The sensitivity of the radial immunodiffusion assay for albumin was 0.05 mg/ml. Urine samples were diluted to 1:40 so that values fell on the standard curve.
200 ul of nephrotoxic serum containing 10 ug of the lipopetide Pam3CysSK4 (EMC microcollections) was given intravenously via the tail vein. 2 hours prior to this, mice were treated as follows. […]
The above groups were place in metabolic cages immediately after induction of disease and exsanguinated under anaesthesia 24 hours later. […] Albuminuria and thrombosis data was analysed after a logarithmic transformation.

C57BL/6 mice [2] = assay: Nephrotoxic serum + Pam3CysSK4 glomerular inflammation model, 2 hours: glomerular neutrophils and circulating leukocytes; assay type: in vivo; conditions: individual mice; 2 hours after disease induction; 50 glomerular cross sections counted
Method: as §1, §2
200 ul of nephrotoxic serum containing 10 ug of the lipopetide Pam3CysSK4 (EMC microcollections) was given intravenously via the tail vein. […]

[3] = 24 hours, versus other treatment groups

For `C[C@]12C=CC(=O)C=C1CC[C@@H]1[C@@H]2C(=O)C[C@@]2(C)[C@H]1CC[C@]2(O)C(=O)CO` [Prednisone], the “albuminuria, in words” value (C57BL/6 mice [1]; [3]) was “did not reach significance”, the “glomerular thrombosis, in words” value (C57BL/6 mice [1]; [3]) was “significantly less thrombosis than PBS but not control antibody treated mice” and the “alb, mg/ml (albuminuria)” value (C57BL/6 mice [1]; individual mice, 24 hour urine collection, radial immunodiffusion) was 2.54 mg/mL and 4.54 mg/mL and 4.71 mg/mL and 4.98 mg/mL. For the same molecule, the “Thromb/50 gloms (glomeruli showing any thrombosis out of a total of 50)” value (C57BL/6 mice [1]; individual mice, 24 hours after disease induction, treated 2 hours before) was 7 /50 gloms (3×) and 3 /50 gloms and the “pmn/glom (neutrophils per glomerular cross section)” value (C57BL/6 mice [2]) was 0.54 pmn/glom and 0.28 pmn/glom and 0.42 pmn/glom and 0.24 pmn/glom and 0.34 pmn/glom.
